From patent US7371414B2, “Therapeutic and diagnostic methods dependent on CYP2A enzymes” (Nicogen, Inc., priority 1997, dated 2008)
Read-outs that look alike come from different tables or passages of the source. Each block holds one compound with its values, some of them ahead of it.

Tests used:
CYP2A6 [1] = target: T1, CYP2A6 (Homo sapiens, UniProt P11509); settings: nicotine 4.0 mg p.o.; for increase in plasma nicotine: p<0.01
T1 sequence (P11509 1-494): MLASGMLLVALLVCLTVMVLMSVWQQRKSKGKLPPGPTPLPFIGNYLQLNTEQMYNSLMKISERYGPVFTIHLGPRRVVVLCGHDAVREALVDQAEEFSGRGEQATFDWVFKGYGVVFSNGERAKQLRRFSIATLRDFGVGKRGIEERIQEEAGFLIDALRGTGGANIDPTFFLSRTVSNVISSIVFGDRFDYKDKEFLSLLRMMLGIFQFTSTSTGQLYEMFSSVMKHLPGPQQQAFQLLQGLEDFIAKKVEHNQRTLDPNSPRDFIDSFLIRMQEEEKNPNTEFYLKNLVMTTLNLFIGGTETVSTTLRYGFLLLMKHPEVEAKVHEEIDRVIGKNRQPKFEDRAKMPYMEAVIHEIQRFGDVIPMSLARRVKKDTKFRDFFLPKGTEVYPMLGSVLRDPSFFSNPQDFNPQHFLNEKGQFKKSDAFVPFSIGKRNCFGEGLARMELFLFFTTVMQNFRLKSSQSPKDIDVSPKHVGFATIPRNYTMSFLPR

CYP2A6 [2] = target: T1, CYP2A6; experiment: In vitro inhibition of nicotine metabolism in expressed CYP2A6
CYP2A6 [3] = target: T1, CYP2A6; experiment: Inhibition of nicotine metabolism to cotinine in test livers; type: biochemical; parameters: from tissue; host or cells: human smokers in vivo (hepatic CYP2A6)
CYP2A6 [4] = target: T1, CYP2A6; experiment: Effect of esculetin on nicotine metabolism by human liver microsomes; type: biochemical; parameters: from tissue; host or cells: human smokers in vivo (hepatic CYP2A6); settings: FIG. 19
Procedure: Nicotine metabolism was monitored in vitro. Inhibitor assessment was carried out by comparing the assay including 50 μl tris buffer with the extracts prepared in Example 11 (50 μl, diluted in tris buffer). Human liver microsomes or CYP2A6 microsomes were used. The concentration of inhibitor in Hypericum was calculated on the basis of an apparent molecular weight of the inhibitor of 504 and a concentration of 0.3% active material in the plant material when diluting to yield concentrations of […] μM.
• Substrate 80 μM (50 μl tris buffer) • NADPH1 mM (50 μl tris buffer) • Microsomes 80 μg (30 μl tris buffer) • Cytosol (rat) 20 μl (tris buffer) • Tris buffer 50 μl (pH7.4) • Final volume […] Incubation Procedure:
The incubation was carried out at 37° C. for 30 min. An internal standard (50 μl, caffeine, 0.05 mg/ml) was added to the incubation mixture, followed by DCM (1 ml). The mixture was shaken for 10 min and centrifuged for 5 min at 3,000 g. The top layer was aspirated. HC1 (0.01 N, 100 μl) was added, followed by shaking for 1 min, then centrifuge for 5 min at 3,000 g. 30 μl of the HCl layer was injected for HPLC. […]

CYP2A6 [5] = target: T1, CYP2A6; experiment: Effect of methoxsalen on nicotine metabolism in tobacco dependent smokers (Example 6); type: in vivo; parameters: from tissue; host or cells: human smokers in vivo (hepatic CYP2A6); settings: methoxsalen 10 mg t.i.d. p.o.
Procedure: Subjects were recruited only if they smoked at least 15 cigarette per day, and were required to smoke the same number of cigarettes each day, on all four study days. During assessment, blood was taken to be analyzed for plasma nicotine and cotinine levels, as well as for CYP2A6 genotyping. Breath carbon monoxide was also measured.
During each study day a smoking log was completed. This log asked subjects to document the number of cigarette smoked from 8:00 a.m. to […]., and 10:00 p.m. to 8:00 a.m. Study days 1 and 2 could be separated, but days 2, 3 and 4 were required to be consecutive.
On both study days 1 (placebo) and 4 (treatment), a 24 h urine collection was initiated on waking. At 2:00 p.m. blood was drawn for nicotine and cotinine analysis and breath carbon monoxide was measured. […] Urine samples can be analyzed for 24 h NNAL, NNAL glucuronide, creatinine and cotinine.

CYP2A6 [6] = experiment: In vivo phenotype assay: plasma kinetics of nicotine and coumarin after oral administration by CYP2A6 genotype; settings: both, human, 4 mg, plasma nicotine, 90 min after nicotine 4.0 mg oral
Procedure: The plasma kinetics of nicotine and coumarin were compared after oral administration in 10 smokers and 9 non-smokers (12 males, 7 females) of known CYP2A6 genotype. The dose of nicotine was 4.0 mg (expressed as base) and the dose of coumarin was 50 mg. The plasma concentration of nicotine, cotinine, coumarin and 7-OH-coumarin were measured as described above.

[7] = cited from earlier work

Compound: N[C@@H]1C[C@H]1c1ccccc1 (racemic) [tranylcypromine]
desire to smoke (CYP2A6 [1]; inhibitor dose 2.5 mg (T2.5), p=0.17): significant (p<0.05) decrease | increase in plasma nicotine (CYP2A6 [1]; inhibitor dose 2.5 mg): ~100% | increase in plasma nicotine (CYP2A6 [1]; inhibitor dose 10 mg): ~100% | plasma nicotine compared to placebo (in words) (CYP2A6 [1]; methoxsalen 3 mg, 10 mg or 30 mg, tranylcypromine 2.5 mg or 10 mg): significantly increased | inhibition of CYP2A6 (in words) (CYP2A6 [2]): potent inhibitors of CYP2A6

inhibition of nicotine metabolism to cotinine (CYP2A6 [3]): 84%±11%
Compound: O=c1ccc2ccccc2o1 [coumarin]

Compound: O=c1ccc2cc(O)c(O)cc2o1 [esculetin]
inhibition of nicotine metabolism by CYP2A6 (in words) (CYP2A6 [4]): potent inhibitor of CYP2A6

desire to smoke (CYP2A6 [1]; inhibitor dose 10 mg (M10)): significant (p<0.05) decrease | desire to smoke (CYP2A6 [1]; inhibitor dose 30 mg (M30)): significant (p<0.05) decrease | decrease in breath CO (CYP2A6 [5]; day 4 vs placebo day): 11% | increase in plasma nicotine (CYP2A6 [5]; day 4 vs placebo day): 17% | breath CO (CYP2A6 [5]; treatment day 4): 20.5 ppm | plasma nicotine (CYP2A6 [5]; treatment day 4): 27 ng/mL
Compound: COc1c2occc2cc2ccc(=O)oc12 [methoxsalen]

Compound: CN1CCCC1c1cccnc1 (stereo not drawn) [nicotine]
concentration at 90 min (CYP2A6 [6]; genotype *1/*1): 24 ± 15 nM | concentration at 90 min (CYP2A6 [6]; genotype *1/*2 or *1/*3): 29 ± 12 nM | concentration at 90 min (CYP2A6 [6]; genotype *2/*2): 52 ± 3 nM | share of nicotine metabolized to the inactive metabolite cotinine ([7]; in humans): 60-85% | share of nicotine metabolized by CYP2A6 in vivo ([7]; in vivo): approximately 75% | share of oral nicotine metabolized to cotinine by the liver ([7]; oral, first pass): 60-85% | nicotine bioavailability ([7]; oral): 20-35% | share of oral nicotine that reaches the systemic circulation ([7]; oral): 15-40%
